Data as given in patent US9737502B2, “Calebin A for hepatic steatosis” (SAMI LABS LIMITED, priority 2011, dated 2017).

Key:
adiponectin = test: Estimation of adiponectin in adipocyte supernatant by ELISA; type: cell-based; conditions: human adipocytes
Experimental: 3T3-L1 cells approximately 60×10^4 cells are seeded for 48-72 hrs to get 70-80% confluence. After 48 hrs 200 μl of AIM (Adipogenesis induction medium) freshly prepared is added. 72 hrs later 200 μl APM (Adipogenesis progression medium) with the test compounds in different concentrations is added to the wells. The cells are incubated for 48 hrs in a humidified atmosphere (37° C.) of 5% CO2 and 95% air. The supernatant is collected and stored for the estimation of leptin, adiponectin, IL-6 and TNF-α by ELISA. Cells are fixed by adding 100 μl of 10% formalin and ORO staining is done. OD is read at 492 nm in microplate reader. The results are expressed as IC50 values using Graphpad prism software.
The percentage of inhibition of adipogenesis is calculated as follows, % inhibition=C−T/[…] Where C-absorbance of Oil red 0 in differentiating/undifferentiated cells T-absorbance of Oil Red-O in sample treated differentiating/undifferentiated cells. The estimation of leptin, adiponectin, IL-6 and TNF-α is done according to user's manual from R&D Systems.

leptin = test: Study 2: serum leptin by ELISA in obese mice; type: in vivo, C57 mice; conditions: Study 2, end of study period
Experimental: Further, on completion of the study period blood samples were collected from all the animals in […] for estimation of systemic expression of leptin and adiponectin. Blood samples were collected humanely from retro-orbital plexus puncture method under mild ether anesthesia with the help of a fine capillary tube. The blood samples collected in tubes without anticoagulant were centrifuged at 3000 rpm for 10 minutes to obtain serum which was subjected to ELISA technique for the estimation of leptin and adiponectin. The import of leptin and adiponectin expression as biomarkers in obesity has been discussed in aforesaid paragraphs. […] Low systemic adiponectin levels have been cited as predictive factors in the progression of disease states like Type II Diabetes mellitus (Chamukuttan Snehalatha et al, “Plasma Adiponectin Is an Independent Predictor of Type 2 Diabetes in Asian Indians”, Diabetes Care December 2003 vol. 26 no. 12 3226-3229).

[1] = Study I: HFD-fed mice, diet supplementation 12 weeks; body weight, food intake, relative organ weights; conditions: for wt gain / Final wt / relative organ weight: Kidney / relative organ weight: liver: 12 weeks; for wt gain: HFD 16.50 ± 2.90; for Final wt: HFD 38.63 ± 3.92; for relative organ weight: Kidney / relative organ weight: liver: percentage of body weight; for Initial wt: baseline
Experimental: Male C57BL/6J mice at 5 weeks of age were purchased from the BioLASCO Experimental Animal Center (Taiwan Co., Ltd., Taipei, Taiwan) and housed in a controlled atmosphere (25±1° C. at 50% relative humidity) and with a 12-h light/12-h dark cycle. […] Animals had free access to food and water at all times. Food cups were replenished with fresh diet daily. The diet intake of animals was monitored every day and the body weight was recorded weekly. […] At the end of the study, all animals were fasted overnight and sacrificed by CO2 asphyxiation. Blood samples were collected from the heart for biochemical analysis. Liver, spleen, kidney and fat pads (perigonadal, retroperitoneal and mesenteric fat) were immediately removed, weighed (TABLE VI) and photographed. […] Body weight was monitored weekly, and the average body weight of each group was expressed as the mean±SE. Statistical analysis was done by Student's t test. (*) P<0.01, compared with ND group; (#) P<0.01, compared with HFD group.

COc1cc(/C=C/C(=O)COC(=O)/C=C/c2ccc(O)c(OC)c2)ccc1O [Calebin A]
percentage enhancement of adiponectin expression (adiponectin; 0.5 μg/ml): 27.12% | percentage enhancement of adiponectin expression (adiponectin; 1.0 μg/ml): 34.06% | percentage enhancement of adiponectin expression (adiponectin; 2.0 μg/ml): 32.8% | inhibition of leptin expression in the serum of obese animals (leptin): insignificant effect | wt gain ([1]; HFD + 0.25% Calebin A): 13.02 ± 2.52 g | Final wt ([1]; HFD + 0.25% Calebin A): 35.28 ± 2.38 g | relative organ weight: Kidney ([1]; HFD + 0.25% Calebin A): 1.22 ± 0.12% | relative organ weight: liver ([1]; HFD + 0.25% Calebin A): 4.05 ± 0.28% | Initial wt ([1]; HFD + 0.25% Calebin A): 22.27 ± 0.49 g | wt gain ([1]; HFD + 1% Calebin A): 10.12 ± 2.48 g | Final wt ([1]; HFD + 1% Calebin A): 31.99 ± 2.50 g | relative organ weight: Kidney ([1]; HFD + 1% Calebin A): 1.30 ± 0.15% | relative organ weight: liver ([1]; HFD + 1% Calebin A): 4.00 ± 0.25% | Initial wt ([1]; HFD + 1% Calebin A): 21.88 ± 0.91^ g
